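Tested at 5 concentrations; 48 h exposure; 96-well plates; endpoints linearly interpolated, else capped at highest concentration. Abbreviation: GI50, concentration required for 50% inhibition of growth.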 Activity calls are given as the source filed them. No stated cut-off is given here; in the data, active = GI50 up to about 1.1 µM and inactive = higher.
Experiments:
Assay in all cases: inhibition of tumour cell growth, NCI panel, 48 h
786-0 = system: 786-0
A498 = system: A498
A549 = system: A549
ACHN = system: ACHN
BT-549 = system: BT-549
CAKI-1 = system: CAKI-1
COLO 205 = system: COLO 205
DU-145 = system: DU-145
EKVX = system: EKVX
HCT-116 = system: HCT-116
HCT-15 = system: HCT-15
HL-60 = system: HL-60
HOP-62 = system: HOP-62
HT-29 = system: HT-29
Hs-578T = system: Hs-578T
IGROV-1 = system: IGROV-1
K562 = system: K562
KM12 = system: KM12
LOX IMVI = system: LOX IMVI
M14 = system: M14
MCF7 = system: MCF7
MDA-MB-231 = system: MDA-MB-231
MDA-MB-435 = system: MDA-MB-435
MDA-N = system: MDA-N
MOLT-4 = system: MOLT-4
Malme-3M = system: Malme-3M
NCI-H226 = system: NCI-H226
NCI-H23 = system: NCI-H23
NCI-H460 = system: NCI-H460
NCI-H522 = system: NCI-H522
NCI/ADR-RES = system: NCI/ADR-RES
OVCAR-3 = system: OVCAR-3
OVCAR-4 = system: OVCAR-4
OVCAR-5 = system: OVCAR-5
OVCAR-8 = system: OVCAR-8
PC-3 = system: PC-3
RPMI-8226 = system: RPMI-8226
RXF 393 = system: RXF 393
SF-268 = system: SF-268
SF-295 = system: SF-295
SF-539 = system: SF-539
SK-MEL-28 = system: SK-MEL-28
SK-MEL-2 = system: SK-MEL-2
SK-MEL-5 = system: SK-MEL-5
SK-OV-3 = system: SK-OV-3
SN12C = system: SN12C
SNB-19 = system: SNB-19
SNB-75 = system: SNB-75
SW-620 = system: SW-620
T47D = system: T47D
TK-10 = system: TK-10
U-251 = system: U-251
UACC-257 = system: UACC-257
UACC-62 = system: UACC-62
UO-31 = system: UO-31
CCRF-CEM = system: CCRF-CEM
HOP-92 = system: HOP-92
HCC 2998 = system: HCC 2998
SR = system: SR

O=C(O)C1C2OC(C(Br)C2Br)C1C(=O)O (centres undefined)
GI50 (786-0): > 100 µM (inactive) | GI50 (A498): > 100 µM (inactive) | GI50 (A549): > 100 µM (inactive) | GI50 (ACHN): > 100 µM (inactive) | GI50 (BT-549): > 100 µM (inactive) | GI50 (CAKI-1): > 100 µM (inactive) | GI50 (COLO 205): > 100 µM (inactive) | GI50 (DU-145): > 100 µM (inactive) | GI50 (EKVX): > 100 µM (inactive) | GI50 (HCT-116): > 100 µM (inactive) | GI50 (HCT-15): > 100 µM | GI50 (HL-60): > 100 µM (inactive) | GI50 (HOP-62): > 100 µM (inactive) | GI50 (HT-29): > 100 µM (inactive) | GI50 (Hs-578T): 24.7 µM (inactive) | GI50 (IGROV-1): > 100 µM (inactive) | GI50 (K562): > 100 µM (inactive) | GI50 (KM12): > 100 µM (inactive) | GI50 (LOX IMVI): > 100 µM (inactive) | GI50 (M14): > 100 µM (inactive) | GI50 (MCF7): > 100 µM (inactive) | GI50 (MDA-MB-231): > 100 µM (inactive) | GI50 (MDA-MB-435): > 100 µM (inactive) | GI50 (MDA-N): > 100 µM (inactive) | GI50 (MOLT-4): > 100 µM (inactive) | GI50 (Malme-3M): > 100 µM (inactive) | GI50 (NCI-H226): > 100 µM (inactive) | GI50 (NCI-H23): > 100 µM (inactive) | GI50 (NCI-H460): > 100 µM (inactive) | GI50 (NCI-H522): > 100 µM (inactive) | GI50 (NCI/ADR-RES): > 100 µM (inactive) | GI50 (OVCAR-3): > 100 µM (inactive) | GI50 (OVCAR-4): > 100 µM (inactive) | GI50 (OVCAR-5): > 100 µM (inactive) | GI50 (OVCAR-8): > 100 µM (inactive) | GI50 (PC-3): > 100 µM (inactive) | GI50 (RPMI-8226): > 100 µM (inactive) | GI50 (RXF 393): > 100 µM (inactive) | GI50 (SF-268): > 100 µM (inactive) | GI50 (SF-295): > 100 µM (inactive) | GI50 (SF-539): > 100 µM (inactive) | GI50 (SK-MEL-28): > 100 µM (inactive) | GI50 (SK-MEL-2): > 100 µM (inactive) | GI50 (SK-MEL-5): > 100 µM (inactive) | GI50 (SK-OV-3): > 100 µM (inactive) | GI50 (SN12C): > 100 µM (inactive) | GI50 (SNB-19): > 100 µM (inactive) | GI50 (SNB-75): > 100 µM (inactive) | GI50 (SW-620): > 100 µM (inactive) | GI50 (T47D): > 100 µM (inactive) | GI50 (TK-10): > 100 µM (inactive) | GI50 (U-251): > 100 µM (inactive) | GI50 (UACC-257): > 100 µM (inactive) | GI50 (UACC-62): > 100 µM (inactive) | GI50 (UO-31): > 100 µM (inactive)

CCCCC(C(=O)N/N=C/c1ccc([N+](=O)[O-])o1)C(=O)N/N=C/c1ccc([N+](=O)[O-])o1
GI50 (786-0): 2.11 µM (inactive) | GI50 (A498): 19.8 µM (inactive) | GI50 (A549): 17.7 µM (inactive) | GI50 (ACHN): 1.82 µM (inactive) | GI50 (BT-549): 5.61 µM (inactive) | GI50 (CAKI-1): 4.06 µM (inactive) | GI50 (CCRF-CEM): 0.977 µM (active) | GI50 (COLO 205): 4.28 µM (inactive) | GI50 (DU-145): 5.37 µM (inactive) | GI50 (EKVX): 13.4 µM (inactive) | GI50 (HCT-116): 1.36 µM (inactive) | GI50 (HCT-15): 2.26 µM | GI50 (HL-60): 2.52 µM (inactive) | GI50 (HOP-62): 13.1 µM (inactive) | GI50 (HOP-92): 1.52 µM (inactive) | GI50 (HT-29): 2.14 µM (inactive) | GI50 (Hs-578T): 2.4 µM (inactive) | GI50 (IGROV-1): 2.17 µM (inactive) | GI50 (K562): 3.28 µM (inactive) | GI50 (KM12): 3.66 µM (inactive) | GI50 (LOX IMVI): 1.84 µM (inactive) | GI50 (M14): 3.81 µM (inactive) | GI50 (MCF7): 4.51 µM (inactive) | GI50 (MDA-MB-231): 3.81 µM (inactive) | GI50 (MDA-MB-435): 5.7 µM (inactive) | GI50 (MDA-N): 3.53 µM (inactive) | GI50 (MOLT-4): 2.09 µM (inactive) | GI50 (Malme-3M): 2.2 µM (inactive) | GI50 (NCI-H226): 2.37 µM (inactive) | GI50 (NCI-H23): 2.02 µM (inactive) | GI50 (NCI-H460): 15.1 µM (inactive) | GI50 (NCI/ADR-RES): 2.64 µM (inactive) | GI50 (OVCAR-3): 2.32 µM (inactive) | GI50 (OVCAR-4): 1.74 µM (inactive) | GI50 (OVCAR-5): 2.81 µM (inactive) | GI50 (OVCAR-8): 2.05 µM (inactive) | GI50 (PC-3): 2.81 µM (inactive) | GI50 (RPMI-8226): 0.682 µM (active) | GI50 (RXF 393): 2.07 µM (inactive) | GI50 (SF-268): 5.65 µM (inactive) | GI50 (SF-295): 15.7 µM (inactive) | GI50 (SF-539): 10.1 µM (inactive) | GI50 (SK-MEL-28): 3.96 µM (inactive) | GI50 (SK-MEL-2): 7.19 µM (inactive) | GI50 (SK-MEL-5): 3.37 µM (inactive) | GI50 (SK-OV-3): 21.1 µM (inactive) | GI50 (SN12C): 3.66 µM (inactive) | GI50 (SNB-19): 3.64 µM (inactive) | GI50 (SNB-75): 17.9 µM (inactive) | GI50 (SW-620): 2.54 µM (inactive) | GI50 (T47D): 3.46 µM (inactive) | GI50 (TK-10): 2.28 µM (inactive) | GI50 (U-251): 2.74 µM (inactive) | GI50 (UACC-62): 2.91 µM (inactive) | GI50 (UO-31): 1.99 µM (inactive)

Cc1cccc(NC(=O)/C=C/c2ccccc2)c1C
GI50 (786-0): > 100 µM (inactive) | GI50 (A498): > 100 µM (inactive) | GI50 (A549): > 100 µM (inactive) | GI50 (ACHN): > 100 µM (inactive) | GI50 (BT-549): > 100 µM (inactive) | GI50 (CAKI-1): > 100 µM (inactive) | GI50 (CCRF-CEM): > 100 µM (inactive) | GI50 (COLO 205): > 100 µM (inactive) | GI50 (DU-145): > 100 µM (inactive) | GI50 (EKVX): > 100 µM (inactive) | GI50 (HCC 2998): > 100 µM (inactive) | GI50 (HCT-116): > 100 µM (inactive) | GI50 (HCT-15): > 100 µM | GI50 (HL-60): > 100 µM (inactive) | GI50 (HOP-62): 85.9 µM (inactive) | GI50 (HT-29): > 100 µM (inactive) | GI50 (Hs-578T): 37.7 µM (inactive) | GI50 (K562): > 100 µM (inactive) | GI50 (KM12): > 100 µM (inactive) | GI50 (LOX IMVI): > 100 µM (inactive) | GI50 (M14): > 100 µM (inactive) | GI50 (MCF7): > 100 µM (inactive) | GI50 (MDA-MB-231): > 100 µM (inactive) | GI50 (MDA-MB-435): > 100 µM (inactive) | GI50 (MDA-N): > 100 µM (inactive) | GI50 (MOLT-4): > 100 µM (inactive) | GI50 (Malme-3M): > 100 µM (inactive) | GI50 (NCI-H226): > 100 µM (inactive) | GI50 (NCI-H23): > 100 µM (inactive) | GI50 (NCI-H460): > 100 µM (inactive) | GI50 (NCI-H522): > 100 µM (inactive) | GI50 (OVCAR-3): > 100 µM (inactive) | GI50 (OVCAR-4): > 100 µM (inactive) | GI50 (OVCAR-5): > 100 µM (inactive) | GI50 (OVCAR-8): > 100 µM (inactive) | GI50 (PC-3): > 100 µM (inactive) | GI50 (RPMI-8226): > 100 µM (inactive) | GI50 (SF-268): > 100 µM (inactive) | GI50 (SF-295): > 100 µM (inactive) | GI50 (SF-539): > 100 µM (inactive) | GI50 (SK-MEL-28): > 100 µM (inactive) | GI50 (SK-MEL-2): > 100 µM (inactive) | GI50 (SK-MEL-5): > 100 µM (inactive) | GI50 (SK-OV-3): > 100 µM (inactive) | GI50 (SN12C): > 100 µM (inactive) | GI50 (SNB-19): > 100 µM (inactive) | GI50 (SNB-75): 77.6 µM (inactive) | GI50 (SR): > 100 µM (inactive) | GI50 (SW-620): > 100 µM (inactive) | GI50 (T47D): > 100 µM (inactive) | GI50 (TK-10): > 100 µM (inactive) | GI50 (U-251): > 100 µM (inactive) | GI50 (UACC-257): > 100 µM (inactive) | GI50 (UACC-62): > 100 µM (inactive)
